1 molecule from patent US20100144781A1, “METHODS OF TREATING PSYCHOSIS AND SCHIZOPHRENIA BASED ON POLYMORPHISMS IN THE ERBB4 GENE” (priority 2008, published 2010) can be followed below.

SMILES strings stand for the structures.

In this assay the test system is subjects with schizophrenia. Kind of assay: Change in PANSS total score by rs6435681 (ErbB4) genotype, pooled paliperidone arms of clinical trial Nos. 1-4. Format: in vivo, human. As to conditions: trials 1-4; for mean reduction in PANSS total score: baseline to end of study. On the procedure: The paliperidone treated arms of clinical trial Nos. 1-4, were pooled and examined for genetic association. The trial Nos. 1-3 were paliperidone ER phase III studies and trial No. 4 was a paliperidone palmitate phase II/III study. To confirm results of the initial genetic association, additional paliperidone treated cohorts, including paliperidone palmitate phase III clinical trial Nos 5-8 and paliperidone ER phase III/IV trial Nos. 9 and 10 were evaluated. The results were further examined with the placebo arms of trial Nos. 1-4 and 6-10, the olanzapine arms of trial Nos. 1-3 and 11, the quetiapine arm of trial No. 9, and the Risperdal Consta arm of the trials No. 5 and 11.
Trial Nos. 1 to 3 were randomized, double-blind, placebo and active controlled phase III trials that were designed to evaluate efficacy and safety of paliperidone-ER in the acute treatment of subjects with schizophrenia. Schizophrenic patients experiencing active symptoms, with Positive and Negative […] (PANSS) score=70-120, were enrolled and randomized to different treatment groups. The patients received paliperidone-ER of 3 mg, 6 mg, 9 mg, 12 mg, or 15 mg, olanzapine of 10 mg or placebo tablet once daily for 6 weeks. Primary efficacy variable/Primary Time point was changed in the total PANSS score from baseline to endpoint. The baseline value was the measurement from the last visit prior to or including the first day of dosing with double-blind study medication, and the endpoint value was the measurement at the end of the double-blind phase or the last post-baseline observation during the double-blind phase. Detailed clinical study design and outcomes of trial Nos. 1-3 were described elsewhere (Marder et al., Biol Psychiatry. 2007, 62:1363-70; Davidson et al., Schizophr Res. 2007, 93:117-30; Kane et al., Schizophr Res. 2007, 90:147-61. Epub).
Trial No. 4 was a randomized, double-blind, placebo-controlled phase II/III study to evaluate the efficacy and safety of long-acting injections of paliperidone palmitate at fixed doses of 50 and 100 mg equivalent in subjects with schizophrenia. Subjects were required to have a total PANSS score between 70 and 120 at Screening and between 60 and 120 on Day 1 prior to the start of double-blind treatment. The primary efficacy variable was the change in total PANSS score from the start of the double-blinded treatment period to the last post-randomization assessment in the double-blinded treatment period.
DNA collected from subjects who consented to the optional pharmacogenomic component of the above clinical trials were analyzed in the genetic study. Briefly, blood samples were collected from subjects and extracted for genomic DNA. […]

On to `Cc1nc2n(c(=O)c1CCN1CCC(c3noc4cc(F)ccc34)CC1)CCCC2O` (stereo not shown) [Paliperidone], for which the “mean reduction in PANSS total score” value reads like this: (patients with AA genotype at rs6435681 (N=25)) 0.6; (patients with GG or GA genotype at rs6435681 (N=659)) 17.8. Also, the “patients displaying a 30% or higher reduction in PANSS total score from baseline” value runs as follows: (patients with AA genotype) 8%; (patients with GG/GA genotype) “Twenty-nine”.
